Laboratory results taken from article PMC6884575, “Suppression of FOXM1 activities and breast cancer growth in vitro and in vivo by a new class of compounds” (NPJ Breast Cancer, 2019).

Experiments:
[1] = Pharmacokinetics in mice after single s.c. or oral dose; assay type: in vivo, female CD1 mice
[2] = molecular target: T1, FOXM1 (Homo sapiens, UniProt Q08050); experiment: tr-FRET competitive binding assay with Fl-NB-72 probe; set-up: we attached a terbium donor to purified, full length FOXM1 through a streptavidin-biotin linker; settings: calculated from IC50 values; Supplementary Table 1; read-out: Ki, affinity for binding to FOXM1 protein
T1 sequence (Q08050 1-763): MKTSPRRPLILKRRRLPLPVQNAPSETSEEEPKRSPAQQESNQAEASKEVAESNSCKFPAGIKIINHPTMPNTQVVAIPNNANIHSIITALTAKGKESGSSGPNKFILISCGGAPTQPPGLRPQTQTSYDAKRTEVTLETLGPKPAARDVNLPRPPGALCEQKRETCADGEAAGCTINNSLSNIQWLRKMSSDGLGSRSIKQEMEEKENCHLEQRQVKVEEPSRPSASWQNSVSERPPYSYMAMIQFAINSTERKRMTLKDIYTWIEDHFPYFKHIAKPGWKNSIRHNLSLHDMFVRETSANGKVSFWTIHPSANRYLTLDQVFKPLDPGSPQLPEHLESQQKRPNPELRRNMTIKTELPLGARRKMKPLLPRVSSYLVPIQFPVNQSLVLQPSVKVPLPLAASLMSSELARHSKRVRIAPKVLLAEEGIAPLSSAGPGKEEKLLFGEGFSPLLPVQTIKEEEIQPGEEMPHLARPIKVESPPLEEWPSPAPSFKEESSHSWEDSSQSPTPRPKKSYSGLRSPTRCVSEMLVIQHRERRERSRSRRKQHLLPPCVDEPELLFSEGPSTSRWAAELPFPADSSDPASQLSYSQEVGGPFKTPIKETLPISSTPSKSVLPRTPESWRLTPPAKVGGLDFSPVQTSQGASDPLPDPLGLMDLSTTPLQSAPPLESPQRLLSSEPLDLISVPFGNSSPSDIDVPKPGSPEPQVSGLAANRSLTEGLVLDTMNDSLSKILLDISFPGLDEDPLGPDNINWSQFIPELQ
Protocol: Competitive binding assays of compound binding to FOXM1 by tr-FRET were done in FRET buffer (20 mM Tris, pH 7.5, 50 mM NaCl, 0.01% NP-40 detergent, 10% glycerol) with 0.3 mg/ml ovalbumin and 0.1 mM butylated hydroxy-anisole added fresh daily. Solutions of the protein, fluorescent probe and compound dilutions were prepared at 3× concentrations, the final dilution taking place as they were mixed together in equal portions on the microtiter plate.
Final concentrations were 10^−5 M to 10^−9 M, with the last point being buffer only, no compound. Fluorescein-NB-72 (Fl-NB- 72) was prepared at 1 mM in DMF and stored at −20 °C. It was diluted into FRET buffer to give 100 nM in the assay. Incubations were done in duplicate on black Molecular Devices 96-well microtiter plates. 5 μl of Fl-NB-72 and 5 μl of the compound dilutions, were mixed together on the plate. To this was added 5 µl biotin-FoxM1 and incubated in the dark at room temperature, for 1 h. […] To correct for background signals, biotin-FOXM1 was omitted, and diffusion-enhanced FRET incubations were done in duplicate on black Molecular Devices 96-well microtiter plates. Five microliter of Fl-NB-72 and 5 μl of the compound solutions were mixed together and then 5 µl of FRET buffer plus SaTb was added, mixed and incubated in the dark at room temperature, for 1 h. The tr-FRET signals measured as above were subtracted as a background from the first incubations that contained biotin-FOXM1. Graphs were prepared using Graph Pad/Prism 4.

[3] = molecular target: T1, FOXM1; experiment: Cellular FOXM1 protein level by Western blot; assay type: cell-based; set-up: endogenous in cells; host or cells: MDA-MB-231, MCF7; settings: MDA-MB-231 or MCF7 cells over time; NB-55 5/8 µM, NB-73 1.5/4 µM, NB-115 4 µM, FDI-6 8 µM
Protocol: For Western blot analysis, whole-cell extracts were prepared using 1X RIPA lysis buffer (Thermo Fisher) supplemented with 1X protease inhibitor cocktail (Millipore Sigma). […] In some cases, treatments with compound were done in the presence of the proteasome inhibitor MG132 (Calbiochem) as described in the figure legend. […] Band intensities were analyzed with Licor Odyssey 2.1 software. All blots shown together derive from the same experiment and were processed in parallel. Full uncropped images of blots are shown as supplementary figures in the Supplementary Information file. Molecular weight markers were Rainbow markers from GE Healthcare (38–225 kDa) or Precision Plus Dual Color Markers from Biorad (37–250 kDa).

[4] = molecular target: T1, FOXM1; experiment: Intracellular localization of FOXM1 (immunofluorescence, nuclear/cytoplasmic fractionation); assay type: cell-based; set-up: endogenous in cells; host or cells: MDA-MB-231, MCF7; settings: 24 h, Western blot of nuclear and cytoplasmic extracts
Protocol: In some cases, treatments with compound were done in the presence of the proteasome inhibitor MG132 (Calbiochem) as described in the figure legend. […] Band intensities were analyzed with Licor Odyssey 2.1 software. All blots shown together derive from the same experiment and were processed in parallel. Full uncropped images of blots are shown as supplementary figures in the Supplementary Information file. Molecular weight markers were Rainbow markers from GE Healthcare (38–225 kDa) or Precision Plus Dual Color Markers from Biorad (37–250 kDa).

[5] = tested on: FOXM1 target gene expression in MCF7 cells; experiment: FOXM1 target gene expression by qRT-PCR; assay type: cell-based, human; settings: MCF7, 24 h, compound at its IC50 for proliferation
Protocol: Total RNA was isolated using TRIzol (Invitrogen) and reverse transcribed using […] reverse transcriptase (New England BioLabs). Real-time PCR was performed using SYBRgreen PCR Master Mix (Quantabio) as described.[15] Relative mRNA levels of genes were normalized to the housekeeping gene 36B4, and fold-change calculated relative to the vehicle treated samples. Results are the average ± SD from at least two independent experiments carried out in triplicate. Primer sequences for the genes studied were obtained from the Harvard Primer Bank. Sequences are available on their website.

[6] = tested on: MCF7 cells; experiment: RNA-Seq gene regulation in MCF7 cells; assay type: cell-based, human
Protocol: For gene expression analysis, total RNA was extracted from cells using Trizol reagent and further cleaned using the Turbo DNase and RNAqueous kits (ThermoFisher). Cells were treated with Veh (0.1% EtOH), or with the compounds indicated for 9 h or 24 h. Once the sample quality and replicate reproducibility were verified, samples from each group were subjected to sequencing. RNA at a concentration of 100 ng/µl in nuclease-free water was used for library construction. cDNA libraries were prepared with the mRNA-TruSeq Kit (Illumina, Inc.). In brief, the poly-A containing mRNA was purified from total RNA, the RNA was fragmented, double-stranded cDNA was generated from fragmented RNA, and adapters were ligated to the ends.
The paired-end read data from the HiSeq 4000 were processed and analyzed through a series of steps. Base calling and de-multiplexing of samples within each lane were done with Casava 1.8.2. The RNA sequences were prepared with Illumina’s TruSeq Stranded mRNAseq Sample Prep kit. Reads were trimmed of adapters and low expression data using Trimmomatic version 0.38.[42] The STAR alignment tool version 2.5.3a was used to align the sequenced reads to the GRCh37 human genome from Ensembl.[43] Gene counts were calculated using subread version 1.5.2.[44],[45] The edgeR Bioconductor package in R was used for normalization and differential expression analysis. Default normalization methods were used, specifically trimmed mean of M values or TMM was used to calculate the normalized expression values. This method calculates the weighted trimmed mean of the log expression ratios in a gene-wise fashion.[46],[47] We considered genes with fold-change > 2 and p-value < 0.05 as statistically significant, differentially expressed.

[7] = tested on: human breast cancer cell lines (DT22, MCF7, T47D, BT474, MDA-MB-453, MDA-MB-468, MDA-MB-231); experiment: Cell proliferation (WST-1) in panel of breast cancer cell lines; assay type: cell-based; settings: cells in culture
Protocol: WST-1 assay (Roche, Basel, Switzerland) was used to quantify cell viability as described.[38] Absorbance was measured at 450 nm using a VICTOR X5 PerkinElmer 2030 Multilabel Plate Reader. All assays were performed in triplicate and analyzed using Graph Pad Prism 8.0.

SMILES: Nc1c(C(=O)Nc2ccc(F)cc2)sc2nc(-c3cccs3)cc(C(F)(F)F)c12 [FDI-6, reference compound]
- blood levels ([1]; oral, 40 mg/kg): undetectable
- blood levels ([1]; s.c., 20 mg/kg): only very low blood levels
- Ki [2]: 143 nM
- intracellular level of FOXM1 [3]: minimally affected
- intracellular localization of FOXM1 [4]: does not change the intracellular localization of FOXM1
- expression of ATF3, a gene suppressed by FOXM1 [5]: increased expression of ATF3
- expression of FOXM1 stimulated target genes (FOXM1C, AURKB, CCNB1, PLK1) [5]: significantly reduced the expression
- genes regulated that overlapped with NB-73 regulated genes ([6]; MCF7, 9 h, more than 2-fold, FDR < 0.05): 48%
- genes regulated more than 2-fold (Venn diagram) ([6]; MCF7, 9 h treatment, p < 0.05, FDI-6 20 µM): 664 genes
- potency in cells in culture [7]: potency similar to NB-55
